Assay results reported in US4698344A, “1-Heteroaryl-4-aryl-pyrazolin-5-ones for use as medicaments” (priority 1984, dated 1987).
Where two headings read alike, the source gives them in different places.

Experiments:
cyclooxygenase [1] = settings: background statement; cited from earlier work
[2] = administered systemically (for example orally); cited from earlier work
lipoxygenase = target: T1, lipoxygenase (Rattus norvegicus, UniProt P12527); assay: Lipoxygenase activity in homogenates of RBL-1 cells; type: biochemical; settings: concentration 0.5-1 μg/ml; negative = inhibition
T1 construct: homogenates of RBL-1 cells; endogenous in cells; host or cells: RBL-1 (rat basophilic leukaemia) cells, homogenate
T1 sequence (P12527 1-673): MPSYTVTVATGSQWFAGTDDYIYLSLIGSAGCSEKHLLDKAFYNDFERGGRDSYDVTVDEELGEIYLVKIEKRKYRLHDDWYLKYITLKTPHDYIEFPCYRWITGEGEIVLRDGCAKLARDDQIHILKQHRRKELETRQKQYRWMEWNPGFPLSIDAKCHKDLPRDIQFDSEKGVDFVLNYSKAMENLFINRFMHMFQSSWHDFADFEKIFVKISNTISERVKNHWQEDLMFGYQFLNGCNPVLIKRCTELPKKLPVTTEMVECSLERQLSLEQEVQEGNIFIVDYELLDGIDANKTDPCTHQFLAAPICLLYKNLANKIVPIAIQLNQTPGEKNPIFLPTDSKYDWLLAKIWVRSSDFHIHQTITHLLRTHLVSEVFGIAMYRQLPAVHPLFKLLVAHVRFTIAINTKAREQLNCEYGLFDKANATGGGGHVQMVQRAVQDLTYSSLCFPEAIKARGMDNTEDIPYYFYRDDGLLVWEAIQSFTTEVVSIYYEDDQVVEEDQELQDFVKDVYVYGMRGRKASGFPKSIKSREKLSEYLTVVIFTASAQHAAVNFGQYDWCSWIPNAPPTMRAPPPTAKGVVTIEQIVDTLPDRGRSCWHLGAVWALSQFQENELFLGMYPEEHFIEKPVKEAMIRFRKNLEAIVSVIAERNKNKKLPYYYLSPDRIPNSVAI
From the text: (§1) Basophilic leukaemia cells from rats (RBL-1) synthesize both lipoxygenase and cyclooxygenase products from ^14 C-arachidonic acid with which they are supplied. […] The products formed were separated by thin layer chromatography and quantified in a scanner.

cyclooxygenase [3] = target: T2, cyclooxygenase (Rattus norvegicus, UniProt Q63921); assay: Cyclooxygenase activity in homogenates of RBL-1 cells; type: biochemical; settings: concentration 0.5-1 μg/ml; negative = inhibition
T2 construct: homogenates of RBL-1 cells; endogenous in cells; host or cells: RBL-1 (rat basophilic leukaemia) cells, homogenate
T2 sequence (Q63921 27-602): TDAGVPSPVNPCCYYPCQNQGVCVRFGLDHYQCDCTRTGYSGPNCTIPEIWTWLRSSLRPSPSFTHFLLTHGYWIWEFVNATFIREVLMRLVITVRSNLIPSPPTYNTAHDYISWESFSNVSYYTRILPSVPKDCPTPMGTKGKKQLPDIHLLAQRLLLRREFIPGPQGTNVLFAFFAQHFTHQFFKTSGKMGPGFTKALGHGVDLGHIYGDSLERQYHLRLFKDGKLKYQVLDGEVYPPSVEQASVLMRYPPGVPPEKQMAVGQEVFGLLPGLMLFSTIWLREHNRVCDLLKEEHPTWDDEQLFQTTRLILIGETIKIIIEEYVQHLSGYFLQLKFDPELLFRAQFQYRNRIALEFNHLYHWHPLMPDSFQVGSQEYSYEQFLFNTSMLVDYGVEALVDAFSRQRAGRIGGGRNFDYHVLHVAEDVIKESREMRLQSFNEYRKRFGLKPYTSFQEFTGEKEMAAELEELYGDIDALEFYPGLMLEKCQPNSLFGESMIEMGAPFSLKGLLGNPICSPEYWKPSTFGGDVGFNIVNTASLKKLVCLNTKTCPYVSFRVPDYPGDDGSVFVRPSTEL
From the text: as §1

5-lipoxygenase = target: T3, 5-lipoxygenase (Homo sapiens, UniProt P09917); assay: Lipoxygenase activity (LTB4 synthesis) in human PMN leukocytes stimulated with A 23187; type: cell-based; settings: for inhibition at 10 µg/mL: read-out: Inhibition of LTB4 synthesis in human PMN's; for Effective threshold concentration, inhibition of LTB4 synthesis: human PMN's
T3 construct: endogenous in cells; host or cells: human polymorphonuclear leukocytes from heparinized whole blood
T3 sequence (P09917 1-674): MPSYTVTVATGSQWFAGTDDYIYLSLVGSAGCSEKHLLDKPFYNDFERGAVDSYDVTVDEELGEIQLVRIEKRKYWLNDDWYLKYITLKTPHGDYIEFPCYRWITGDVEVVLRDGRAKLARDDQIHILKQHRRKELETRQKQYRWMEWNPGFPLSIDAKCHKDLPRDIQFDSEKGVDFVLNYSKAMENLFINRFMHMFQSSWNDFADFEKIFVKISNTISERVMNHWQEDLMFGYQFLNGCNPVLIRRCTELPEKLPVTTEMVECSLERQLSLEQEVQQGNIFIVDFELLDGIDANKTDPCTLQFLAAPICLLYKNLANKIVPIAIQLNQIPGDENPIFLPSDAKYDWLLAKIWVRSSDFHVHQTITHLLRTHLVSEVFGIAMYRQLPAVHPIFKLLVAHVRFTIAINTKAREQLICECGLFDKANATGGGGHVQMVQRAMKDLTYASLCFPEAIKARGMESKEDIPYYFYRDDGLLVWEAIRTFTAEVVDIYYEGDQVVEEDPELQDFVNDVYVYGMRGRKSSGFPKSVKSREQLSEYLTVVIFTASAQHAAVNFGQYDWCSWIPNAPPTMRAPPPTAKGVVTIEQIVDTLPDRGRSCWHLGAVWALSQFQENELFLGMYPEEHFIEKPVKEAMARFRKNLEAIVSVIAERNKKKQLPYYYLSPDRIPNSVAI
Experimental: The polymorphonuclear leukocytes of humans metabolize arachidonic acid to give 5-hydroxy-5,8,11,14-eicosatetraenoic acid (5-HETE) and leukotriene B4 (5S, 12R-dihydroxy-6-cis, 8,10-trans-14ciseicosatetraenoic acid). Inhibition of the release of 5-HETE and leukotriene B4 from leukocytes is a measure of the lipoxygenase-inhibiting effect of the compounds according to the invention.
After 15 minutes, the lipoxygenase products were extracted from the acidified incubation medium and separated by means of HPLC.

[4] = system: release of leukotrienes (SRS-A); assay: Passive peritoneal anaphylaxis (rats); type: in vivo, rat; settings: 100 mg/kg perorally
Experimental: The effect of substances on the release of mediators, in particular the release of leukotrienes, is recorded with this in vivo method. […] Histamine is not released during this, so that the lipoxygenase-inhibiting action of test substances can be investigated selectively.

[5] = system: carrageenan-induced oedema of the rat paw; assay: Carrageenan-induced oedema of the rat paw; type: in vivo; settings: for % inhibition of the carrageenan oedema: oral, 2.5 mg/kg, rats, 5 hours after oedema provocation
Experimental: The antiinflammatory action of the test substances following oral administration was determined with the aid of carrageenan-induced oedema of the rat paw.
The experiments were carried out with male rats, strain: Bor:WLSW (SPF-Cpb); weight 150 to 220 g. One hour before inducing the oedema (0.1 ml of carrageenan suspension/animal, subplantar injection), the substance to be tested was administered to the animals as a suspension in tragacanth with the aid of a stomach tube; as a control, a second group of animals was treated with tragacanth without the substance.
The paw volumes were measured by the method of F. Kemper and G. Ameln Z. exp.

12-lipoxygenase = target: T4, 12-lipoxygenase (Homo sapiens, UniProt P18054); assay: Arachidonic acid metabolism in human platelets: 12-lipoxygenase activity; type: cell-based
T4 construct: washed human platelets; endogenous in cells; host or cells: washed human platelets
T4 sequence (P18054 1-663): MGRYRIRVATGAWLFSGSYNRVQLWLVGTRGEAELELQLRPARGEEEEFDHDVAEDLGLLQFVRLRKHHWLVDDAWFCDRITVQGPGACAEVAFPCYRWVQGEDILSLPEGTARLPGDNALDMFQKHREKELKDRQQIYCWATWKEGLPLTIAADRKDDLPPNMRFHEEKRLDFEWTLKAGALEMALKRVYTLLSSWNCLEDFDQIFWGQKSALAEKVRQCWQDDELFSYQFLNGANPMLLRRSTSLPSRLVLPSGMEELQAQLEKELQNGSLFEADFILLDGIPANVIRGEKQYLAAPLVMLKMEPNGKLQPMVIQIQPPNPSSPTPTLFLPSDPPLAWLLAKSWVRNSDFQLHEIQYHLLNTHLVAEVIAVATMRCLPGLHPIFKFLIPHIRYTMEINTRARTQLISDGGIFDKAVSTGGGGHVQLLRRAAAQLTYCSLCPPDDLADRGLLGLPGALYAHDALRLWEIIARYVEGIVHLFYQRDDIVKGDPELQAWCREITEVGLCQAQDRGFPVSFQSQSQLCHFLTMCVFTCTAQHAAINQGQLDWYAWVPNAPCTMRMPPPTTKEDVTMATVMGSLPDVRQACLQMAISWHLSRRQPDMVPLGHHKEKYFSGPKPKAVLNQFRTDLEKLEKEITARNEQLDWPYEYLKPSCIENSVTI
Experimental: (§2) The metabolism of radioactively labelled arachidonic acid on washed human platelets is utilised in this test method. In this in vitro test, the radioactively labelled metabolites are extracted from the reaction mixture and separated by thin layer chromatography. The autoradiogram is evaluated with a thin layer scanner. Under these test conditions, the labelled metabolites are separated from the unreacted arachidonic acid and can then be evaluated quantitatively.

cyclooxygenase [6] = target: T5, cyclooxygenase (Homo sapiens, UniProt P23219); assay: Arachidonic acid metabolism in human platelets: cyclooxygenase activity; type: cell-based
T5 construct: washed human platelets; endogenous in cells; host or cells: washed human platelets
T5 sequence (P23219 24-599): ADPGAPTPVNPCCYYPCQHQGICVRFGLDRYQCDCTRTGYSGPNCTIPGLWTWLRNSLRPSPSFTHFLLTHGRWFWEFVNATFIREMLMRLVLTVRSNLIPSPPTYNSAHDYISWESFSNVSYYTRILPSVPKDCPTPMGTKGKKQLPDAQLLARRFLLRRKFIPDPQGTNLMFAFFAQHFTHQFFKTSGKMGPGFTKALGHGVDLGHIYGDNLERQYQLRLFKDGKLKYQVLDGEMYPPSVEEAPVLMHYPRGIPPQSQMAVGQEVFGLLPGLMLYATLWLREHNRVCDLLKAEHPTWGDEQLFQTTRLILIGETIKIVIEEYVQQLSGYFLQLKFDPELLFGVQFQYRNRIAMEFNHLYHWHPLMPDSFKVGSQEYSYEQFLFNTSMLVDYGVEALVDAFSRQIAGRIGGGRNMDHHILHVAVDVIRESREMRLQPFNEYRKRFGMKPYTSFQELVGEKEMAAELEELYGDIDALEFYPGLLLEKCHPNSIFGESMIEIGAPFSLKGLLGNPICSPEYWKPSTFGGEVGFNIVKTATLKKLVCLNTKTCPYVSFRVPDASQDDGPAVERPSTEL
Experimental: as §2

SMILES	Action on lipoxygenase (LO): Effect (lipoxygenase)	Action on cyclooxygenase (CO): Effect (cyclooxygenase [3])	% inhibition of the carrageenan oedema [5]	other results
CCCCCC#CCC#CCC#CCC#CCCCC(=O)O [5,8,11,14-eicosatetraynoic acid]	–	–	–	cyclooxygenase activity / potency of known lipoxygenase inhibitors (in words) (cyclooxygenase [1]): either simultaneously active as cyclooxygenase inhibitors or active only at very high concentrations
NC1=NN(c2cccc(C(F)(F)F)c2)CC1 [BW 755C, 3-amino-1-(3-trifluoromethylphenyl)-pyrazoline]	–	–	–	toxic side effects (in words) [2]: toxic side effects
O=c1c(-c2ccccc2)c[nH]n1-c1ccccn1 [Example 7, 1-pyrid-2-yl-4-phenyl-pyrazolin-5-one]	-66%	+28%	44%	inhibition at 10 µg/mL (5-lipoxygenase): 92%; % inhibition, passive peritoneal anaphylaxis [4]: 65%; ED50 ([5]; Rattus norvegicus, po, 5 h, read-out: ED50 of oedema inhibition): 9.1 mg/kg
O=c1c(-c2ccccc2F)c[nH]n1-c1ccccn1 [Example 8]	-73%	+3%	–	inhibition at 10 µg/mL (5-lipoxygenase; at 10 μg/ml): 71%; Effective threshold concentration, inhibition of LTB4 synthesis (5-lipoxygenase): 1 to 10 µg/mL; Inhibition (threshold concentration), 12-lipoxygenase (12-lipoxygenase): 1 to 10 µg/mL; Inhibition (threshold concentration), cyclooxygenase (cyclooxygenase [6]): 1 to 10 µg/mL
O=c1c(-c2ccc(Cl)c(Cl)c2)c[nH]n1-c1ccccn1 [Example 16]	-76%	-19%	–	inhibition at 10 µg/mL (5-lipoxygenase; at 10 μg/ml): 85%; Effective threshold concentration, inhibition of LTB4 synthesis (5-lipoxygenase): 1 to 10 µg/mL; Inhibition (threshold concentration), 12-lipoxygenase (12-lipoxygenase): 1 to 10 µg/mL; Inhibition (threshold concentration), cyclooxygenase (cyclooxygenase [6]): 1 to 10 µg/mL
COc1ccc(-c2c[nH]n(-c3ccccn3)c2=O)cc1 [Example 18]	–	–	22%	–
Cc1ccccc1-c1c[nH]n(-c2ccccn2)c1=O [Example 24]	-34%	-2%	–	–
Cc1cccc(-c2c[nH]n(-c3ccccn3)c2=O)c1 [Example 25]	–	–	–	% inhibition, passive peritoneal anaphylaxis [4]: 64%
O=c1c(-c2cccc(C(F)(F)F)c2)c[nH]n1-c1ccccn1 [Example 27]	–	–	–	% inhibition, passive peritoneal anaphylaxis [4]: 47%
O=c1c(-c2ccc(C(F)(F)F)cc2)c[nH]n1-c1ccccn1 [Example 28]	-58%	+5%	21%	–
Cc1[nH]n(-c2ccccn2)c(=O)c1-c1ccccc1 [Example 49]	–	–	16%	–
COc1ccccc1-c1c[nH]n(-c2ccc(Cl)cn2)c1=O [Example 58]	-66%	-17%	–	–
Cc1[nH]n(-c2ccc(Cl)cn2)c(=O)c1-c1ccccc1 [Example 63]	–	–	–	inhibition at 10 µg/mL (5-lipoxygenase; at 10 μg/ml): 100%; Effective threshold concentration, inhibition of LTB4 synthesis (5-lipoxygenase): 1 to 10 µg/mL; Inhibition (threshold concentration), 12-lipoxygenase (12-lipoxygenase): 1 to 10 µg/mL; Inhibition (threshold concentration), cyclooxygenase (cyclooxygenase [6]): 1 to 10 µg/mL
O=c1c(-c2ccccc2)c[nH]n1-c1ccc([N+](=O)[O-])cn1 [Example 69]	–	–	34%	–
O=c1c(-c2ccccc2)c[nH]n1-c1ncccn1 [Example 103, 1-pyrimid-2-yl-4-phenyl-pyrazolin-5-one]	-42%	–	–	–
O=c1c(-c2ccccc2F)c[nH]n1-c1ncccn1 [Example 104]	-46%	+23%	–	–
COc1ccc(-c2c[nH]n(-c3ncccn3)c2=O)cc1 [Example 113]	-71%	-11%	–	–
O=c1c(-c2ccccc2)c[nH]n1-c1ncc(Cl)cn1 [Example 130]	–	–	38%	–
O=c1c(-c2ccc(C(F)(F)F)cc2)c[nH]n1-c1ncc(Cl)cn1 [Example 135]	–	–	46%	–
CC(Cc1ccc(O)c(O)c1)C(C)Cc1ccc(O)c(O)c1 (stereo not drawn) [nordihydroguaretic acid]	–	–	–	cyclooxygenase activity / potency of known lipoxygenase inhibitors (in words) (cyclooxygenase [1]): either simultaneously active as cyclooxygenase inhibitors or active only at very high concentrations
O=C1CCN(c2ccccc2)N1 [phenidone]	–	–	–	cyclooxygenase activity / potency of known lipoxygenase inhibitors (in words) (cyclooxygenase [1]): either simultaneously active as cyclooxygenase inhibitors or active only at very high concentrations
